Test results taken from ChEMBL document CHEMBL3507680, “University of Dundee, Gates Library screen for HepG2 cell viability”.

Assay: Human HepG2 cell viability assay in 384 well format
Format: toxicity, cell-based
Design: dose 125 nL, time 70.5 hour; cytotoxicity at 70.5 h: concentration not given beside the values
Conditions: HepG2 cells, read-out: Inhibition

SMILES | cytotoxicity at 70.5 h [%]
CNS(=O)(=O)c1cccc(C(C)NCc2ccc(C)c(C)c2)c1 (centres undefined) | 19.3
NC(=O)C1CCN(c2cncc(-n3cccn3)n2)CC1 | 6.36
N#CCCN(C(=O)CN1CCCC1c1ccccc1Cl)c1ccccc1 (centres undefined) | -11.7
COc1ccc(NC(=O)c2ccoc2C)c(N2CCN(C(C)=O)CC2)n1 | -14.1
CC(=O)c1cccc(NC(=O)CN2CCCCC2C(=O)N2CCCC2)c1 (centres undefined) | -13.4
CS(=O)(=O)c1ccc(NC(=O)CSc2ccc3c(c2)CCC3)cn1 | -14.4
CNC(=O)c1cnc(/C=C/c2ccc(O)c(OC)c2)s1 | -14.3
COc1ccc(NC(=O)CN2CCCCC2C2OCCO2)cc1 (centres undefined) | -4.96
CCS(=O)(=O)N(C)C1CCN(C(=O)c2cc(C)cc(C)c2)CC1 | -14.2
CNS(=O)(=O)c1cccc(C(C)NCc2cccc(C)c2C)c1 (centres undefined) | -12.2
Cc1ccc(C(CNCc2cccnc2)N2CCOCC2)s1 (centres undefined) | -10.2
Cc1cc(C)n(-c2cncc(N3CCC(C(=O)N(C)C)CC3)n2)n1 | 11.2
c1ccc(C2CCCN(c3cncc(-n4cccn4)n3)CC2)cc1 (centres undefined) | -9.13
CN1CCN(C(=O)C2SCCc3sccc32)CC1 (centres undefined) | -6.9
COCc1nc2cc(NCc3cc[nH]n3)ccc2o1 | -2.44
CNS(=O)(=O)c1cccc(C(C)NCc2ccc(F)c(F)c2)c1 (centres undefined) | -6.64
CC(=O)Nc1nc(CN(C)CC2CCCN2c2cccnn2)cs1 (centres undefined) | -12.7
FC(F)(F)C1CCCn2c(CNCc3cccs3)nnc21 (centres undefined) | -7.88
Cn1cccc1CNCc1nnc2n1CCCC2C(F)(F)F (centres undefined) | -5.37
CN(CC(=O)N1CCCC1c1noc(C2CC2)n1)S(C)(=O)=O (centres undefined) | -12.3

SMILES | cytotoxicity at 70.5 h [%]
O=C(CCn1cccn1)NCC(c1cccs1)N1CCOCC1 (centres undefined) | 25.6
CCOc1ncccc1CNC(=O)N1CCCC1c1cccs1 (centres undefined) | -11.7
COc1cc(CNC(=O)N2CCCC2c2cc(C)no2)ccn1 (centres undefined) | -15.1
CNC(=O)NC(=O)C(C)N1CCC(c2c[nH]c3ccc(OC)cc23)CC1 (centres undefined) | -2.98
CCSCCC(=O)Nc1ncn(Cc2ccccc2)n1 | -14.4
CC(SCC(=O)NC(N)=O)c1ccccc1F (centres undefined) | -8.18
CN(C)C(=O)Cn1cc(C#N)c(=O)c2cc(Br)ccc21 | 1.29
CC(C)CNC(=O)c1cc(Br)c2c(c1)OCCO2 | -7.77
CCc1nc2n(n1)CCCC2Nc1nc(C2CC2)ns1 (centres undefined) | -8.97
CCCS(=O)(=O)CC(=O)N1CCCC1c1noc(C2CC2)n1 (centres undefined) | -17.8
O=C(Cn1cccn1)NCC(c1cccs1)N1CCCC1 (centres undefined) | -11.9
CC(NC(=O)CCn1cccn1)c1cccs1 (centres undefined) | -0.167
Cc1ccc(N2CCCC(N(C)Cc3nc(C)c(C)o3)C2)nn1 (centres undefined) | -11.5
Cc1ccc(N2CCCC(N(C)Cc3noc(C4CC4)n3)C2)nn1 (centres undefined) | -9.69
CSC(C)(C)CNC(=O)NC1CCN(CC=C(C)C)CC1 | 31.2
CSC(C)(C)CNC(=O)NC1CCN(CC2CC2)C1 (centres undefined) | 15.5
COc1ccc(Br)c(C(=O)NCC2CC2)c1 | 18.2
O=C1c2ccccc2C(=O)N1CC(O)Cn1nc(-c2cccs2)oc1=O (centres undefined) | 5.68
O=c1oc(-c2cccs2)nn1CC(O)c1ccccc1F (centres undefined) | -4.66
CCCS(=O)(=O)N1CCC(NC(=O)c2ccc(C)s2)CC1 | -8.95

SMILES | cytotoxicity at 70.5 h [%]
CC(NC(=O)NCCCn1cccn1)c1ccccn1 (centres undefined) | -5.57
CCc1ccc(C(=O)Nc2cccc(CN3CCCC3C(N)=O)c2)cc1 (centres undefined) | 0.802
CC(NC(=O)NCCCn1cccn1)c1ccncc1 (centres undefined) | -10.8
O=C(CCN1CCCC1c1cccc2c1OCCO2)N1CCCCC1 (centres undefined) | -6.86
NC(=O)NC(=O)CCN1CCCC1c1cccc2c1OCCO2 (centres undefined) | -11.6
CCc1nc(CCNC(=O)Nc2cc(C(N)=O)ccc2OC)cs1 | -12.4
CCNC(=O)CCN1CCCC1c1cccc2c1OCCO2 (centres undefined) | -7.15
Cc1cccc(NC(=O)[C@@H]2CCCN2Cc2nc3ccccc3o2)n1 | 4.7
COc1ccc(-n2cnnc2SCC(=O)NC(C)C)cn1 | -3.19
Cc1cc(S(=O)(=O)N2CCCc3cc(Cl)ccc32)sc1C(=O)O | 2.62
COCC(=O)NC1CCN(c2cccc(OC(F)(F)F)c2)C1=O (centres undefined) | -7.95
CCC(=O)NC1CCN(c2cccc(OC(F)(F)F)c2)C1=O (centres undefined) | -2.63
Cc1cccc(NC(=O)[C@@H]2CCCN2Cc2ccc(C#N)cc2F)n1 | -0.253
CC(=O)N1CCC(C(=O)NC(C)c2cccc(OC(F)F)c2)CC1 (centres undefined) | 1.57
Cc1cc(C(=O)N2CCN(CC(O)Cn3cccn3)CC2)c(C)o1 (centres undefined) | 6.38
Cc1ccc(NC(=O)C2CCc3ccccc3N2)cc1 (centres undefined) | 15.2
CC(=O)NCCC(=O)NCC1(c2c(F)cccc2F)CCCC1 | -3.9
COC(=O)c1ccc(/C=C/c2ncc(C(=O)O)s2)cc1 | 3.38
COc1cc(/C=C/c2ncc(C(=O)O)s2)cc(OC)c1 | 14.7
